Data set [1] deals with OF1 mice. Briefly: 6-Hz electroshock-induced seizures. The format is in vivo. The conditions noted are these: dose-range 10–30, ip. The protocol:
SAR218645 (10 and 30 mg/kg, po) and the reference anticonvulsant agent, levetiracetam (20 mg/kg), were administered ip. to OF1 mice (12–14 g) 30 min prior to test, respectively. An electrical stimulus (6 Hz, 0.2 ms rectangular pulse, 3 s duration, 32 mA) was applied to both corneas. Animals were closely observed and rated for seizure behavior according to a modified Racine scale. Kruskal-Wallis multiple comparisons test was used to assess potential differences between treatment groups.

A further data set deals with rat mGluR2 (Rattus norvegicus, UniProt P31421). Briefly: [3H]LY341495 binding to membranes. Also on record: expressed in transfected cells; host or cells: inducible HEK-293 cell line (membranes). The conditions noted are these: 10 μM SAR218645. The protocol: Binding assay was adapted from Johnson et al.[29]. […] Addition of 5–10 μg membrane protein initiated the incubation. After 45 min at room temperature, the incubation was terminated by rapid filtration followed by scintillation counting. Ki’s were calculated using 4-parameter curve fitting.

In another data set the test system is NMDA Nr1neo−/− mice. Briefly: Spontaneous locomotor hyperactivity of transgenic mice. The format is in vivo. The procedure: (§1) An actimeter device consisting of a cylinder (20 cm diameter, 9.5 cm height, Apelex, France) equipped with two perpendicular light beams located 1.5 cm above the floor was used. Mice from the transgenic batches (DAT^−/− and NMDA Nr1^neo−/−) were orally pretreated with either SAR218645 or vehicle and individually isolated in boxes for a period of 60 min. Animals were then placed in the actimeter device and locomotor activity (number of interrupted light beams) was recorded for a period of 30 or 60 min. Mice in which the expression of the dopamine transporter (DAT) was knocked out (i.e., the DAT^−/− mouse) have been proposed as a reliable model of the positive symptoms of schizophrenia. In these mice, dopamine levels in the synapse are dramatically elevated and these animals are hyperactive and agitated in behavioral tests. NMDA Nr1^neo−/− mice express only 5 to 10% of normal levels of the NR1 subunit of the NMDA receptor[33], thus mimicking a hypo-glutamatergic state. […] As such, they have been proposed as an animal model of schizophrenia. […] As such, in our present experiments, a relatively moderate dose of amphetamine (2 mg/kg ip) or MK-801 (0.2 mg/kg, ip) was used to selectively induce similar hyperactivity, with no noticeable appearance of stereotyped behaviors in normal mice. For amphetamine or MK-801 antagonism experiments, male Swiss mice (20–30 g) were orally pretreated with SAR218645, haloperidol or vehicle, immediately individually isolated in a Plexiglas box, followed 30 min later by administration of vehicle, amphetamine or MK-801. Immediately following amphetamine challenge, 30 min after MK-801 challenge, mice were placed in the actimeter devices and locomotor activity was recorded for a period of 30 (DAT^−/−) or 60 (NMDA Nr1^neo−/−) min.
(§2) Statistical analyses were performed using SAS V8.2 software (SAS Institute, Cary, NC, USA). The number of light beam breaks (motility count) recorded for 30 or 60 min were analyzed using one-way ANOVAs using a fixed factor of challenge or genotype and complementary post hoc (Newman-Keuls) tests were performed. Five to nine animals per group were used.

The test system of a further data set is DAT−/− mice. The data set is described as above. The format is in vivo. The procedure:
as §1, §2

Another data set concerns the target T1, human mGluR6 (Homo sapiens, UniProt O15303).
T1 construct: host or cells: HEK293 co-expressing Gqi5
Briefly: Multispan Allosteric Profiling panel, Ca2+ (Gqi5). The format is cell-based.

The target in a further data set is T2, human mGluR3 (Homo sapiens, UniProt Q14832).
T2 construct: host or cells: HEK293 co-expressing Gqi5
Briefly: Multispan Allosteric Profiling panel, Ca2+ (Gqi5). The format is cell-based.

In data set [2] the test system is approximately 180 different receptors, ion channels, enzymes, transporters and kinases. Briefly: In vitro selectivity profile (CEREP and internal panels). The format is binding. The conditions noted are these: up to 10 μM. The protocol: The effect of SAR218645 on approximately 180 different receptors, ion channels, enzymes, transporters and kinases (see Supplementary Material Table S1) was evaluated at a contract research organization (CEREP, Celle L’Evescault, France) using established protocols or through internal studies.

Data set [3] has as its system OF1 mice. Briefly: Pentylenetetrazol (PTZ) seizure threshold test. The format is in vivo. The settings on record: dose-range 10–30, po. The protocol: The seizure threshold was determined by the infusion of 8 mg/mL of PTZ at a rate of 0.7 mL/min via a flexible plastic catheter into the tail vein of freely moving OF1 mice (22–24 g) using an infusion pump. The convulsant dose for each endpoint was calculated in mg/kg PTZ. SAR218645 (10 and 30 mg/kg, po) and diazepam (3 mg/kg, ip) were administered 60 or 30 min prior to the beginning of PTZ infusion, respectively. One-way ANOVA was used to assess overall effect of treatment, and Dunnett’s post-hoc was used to compare differences between treatment groups. Ten to fifteen animals per group were used.

The subject of another data set is CD-1 mice. Briefly: LY404039-induced turning behavior. The format is in vivo. The protocol: Under light restraint, a single unilateral intracortical infusion of the selective mGluR2/3 receptor agonist, LY404039, was performed in CD-1 mice (25–30 g at arrival). An injection point was assessed using the eyes and back of the skull as landmarks. Immediately following the application of LY404039, the observation period began. The number of contralateral turns elicited in a 5 min period was recorded. SAR218645 was administered orally 60 min before infusion of LY404039 and the potentiation of the turning behavior was noted. The selective mGluR2/3 receptor antagonist, LY341495, was administered ip 90 min prior to infusion of LY404039. Statistical analysis was performed using Kruskal Wallis test followed by a Wilcoxon two-tailed comparison. Ten animals per group were used.

rat mGluR2, sequence (P31421 19-872): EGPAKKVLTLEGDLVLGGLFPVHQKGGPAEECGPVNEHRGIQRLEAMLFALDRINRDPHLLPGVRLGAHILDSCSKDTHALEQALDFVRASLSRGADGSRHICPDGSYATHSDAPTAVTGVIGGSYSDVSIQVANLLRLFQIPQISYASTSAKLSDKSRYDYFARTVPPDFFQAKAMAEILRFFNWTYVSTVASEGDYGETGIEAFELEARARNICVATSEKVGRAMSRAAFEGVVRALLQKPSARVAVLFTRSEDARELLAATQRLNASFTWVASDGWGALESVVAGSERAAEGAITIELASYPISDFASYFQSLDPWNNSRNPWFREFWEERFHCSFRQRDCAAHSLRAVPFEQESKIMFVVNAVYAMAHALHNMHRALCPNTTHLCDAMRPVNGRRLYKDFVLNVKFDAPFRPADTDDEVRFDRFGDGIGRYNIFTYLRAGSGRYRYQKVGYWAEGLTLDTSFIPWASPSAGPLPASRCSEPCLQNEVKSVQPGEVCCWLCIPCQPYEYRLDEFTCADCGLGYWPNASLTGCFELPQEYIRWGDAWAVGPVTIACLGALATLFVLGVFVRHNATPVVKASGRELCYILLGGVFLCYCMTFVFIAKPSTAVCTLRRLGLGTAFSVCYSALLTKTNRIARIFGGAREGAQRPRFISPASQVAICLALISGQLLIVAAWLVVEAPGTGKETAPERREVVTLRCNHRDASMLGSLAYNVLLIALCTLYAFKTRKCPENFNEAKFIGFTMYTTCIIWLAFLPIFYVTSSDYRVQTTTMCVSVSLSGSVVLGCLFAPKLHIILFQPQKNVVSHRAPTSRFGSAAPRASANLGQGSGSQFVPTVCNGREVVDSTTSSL
T2 sequence (Q14832 23-879): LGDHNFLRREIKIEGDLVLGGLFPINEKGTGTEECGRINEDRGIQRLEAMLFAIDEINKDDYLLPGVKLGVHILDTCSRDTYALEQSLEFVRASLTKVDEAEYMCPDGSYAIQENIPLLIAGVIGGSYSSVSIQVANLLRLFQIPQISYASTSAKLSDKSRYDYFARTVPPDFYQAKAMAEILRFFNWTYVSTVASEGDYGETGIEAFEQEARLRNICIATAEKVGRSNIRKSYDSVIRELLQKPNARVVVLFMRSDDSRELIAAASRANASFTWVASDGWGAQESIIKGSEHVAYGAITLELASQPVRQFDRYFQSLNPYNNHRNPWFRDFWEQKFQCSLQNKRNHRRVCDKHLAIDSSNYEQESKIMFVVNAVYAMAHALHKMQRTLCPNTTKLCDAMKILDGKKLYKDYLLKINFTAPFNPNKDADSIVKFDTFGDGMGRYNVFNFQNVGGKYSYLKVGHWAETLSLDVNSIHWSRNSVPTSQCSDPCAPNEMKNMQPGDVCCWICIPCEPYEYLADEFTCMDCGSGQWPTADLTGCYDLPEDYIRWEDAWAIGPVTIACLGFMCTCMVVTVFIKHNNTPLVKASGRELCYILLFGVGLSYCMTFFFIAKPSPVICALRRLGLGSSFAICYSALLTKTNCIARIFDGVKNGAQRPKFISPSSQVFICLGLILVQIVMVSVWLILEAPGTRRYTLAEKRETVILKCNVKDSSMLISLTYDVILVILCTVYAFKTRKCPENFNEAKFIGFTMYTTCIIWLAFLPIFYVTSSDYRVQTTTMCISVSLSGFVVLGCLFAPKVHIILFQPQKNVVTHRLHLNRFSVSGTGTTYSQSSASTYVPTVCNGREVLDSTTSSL
T1 sequence (O15303 25-877): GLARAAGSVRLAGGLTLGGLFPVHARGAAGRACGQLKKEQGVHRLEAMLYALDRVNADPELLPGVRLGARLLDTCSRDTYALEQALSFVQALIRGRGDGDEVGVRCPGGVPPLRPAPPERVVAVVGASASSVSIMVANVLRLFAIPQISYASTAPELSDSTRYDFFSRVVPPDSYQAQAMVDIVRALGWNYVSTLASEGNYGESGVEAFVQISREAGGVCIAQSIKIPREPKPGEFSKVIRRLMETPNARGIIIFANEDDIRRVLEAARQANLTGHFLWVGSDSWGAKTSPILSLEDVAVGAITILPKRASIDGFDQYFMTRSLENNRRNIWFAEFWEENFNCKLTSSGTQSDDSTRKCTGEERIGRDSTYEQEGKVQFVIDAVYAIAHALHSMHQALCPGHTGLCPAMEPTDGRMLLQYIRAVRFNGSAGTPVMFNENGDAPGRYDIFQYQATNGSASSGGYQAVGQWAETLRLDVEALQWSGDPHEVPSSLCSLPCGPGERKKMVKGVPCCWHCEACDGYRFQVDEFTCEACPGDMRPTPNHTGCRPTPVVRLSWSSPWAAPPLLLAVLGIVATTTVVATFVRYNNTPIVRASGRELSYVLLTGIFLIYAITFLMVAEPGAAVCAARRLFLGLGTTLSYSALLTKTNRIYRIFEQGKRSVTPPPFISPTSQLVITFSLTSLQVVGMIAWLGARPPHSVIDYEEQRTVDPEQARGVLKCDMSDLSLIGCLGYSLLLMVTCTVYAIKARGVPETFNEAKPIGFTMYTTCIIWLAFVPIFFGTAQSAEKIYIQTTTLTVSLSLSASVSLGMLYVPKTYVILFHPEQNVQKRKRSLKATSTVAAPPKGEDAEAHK

`CC1(C)CCc2cc(OC[C@@H]3Cn4ccc(=O)nc4O3)ccc21` [SAR218645, (S)-2-(1,1-dimethyl-indan-5-yloxymethyl)-2,3-dihydro-oxazolo[3,2-a]pyrimidin-7-one]: the Minimal active dose in the data set with OF1 mice [1] is listed as >30 mg/kg; with NMDA Nr1neo−/− mice (dose-range 1–10, po) it was >10 mg/kg; in the data set on DAT−/− mice (dose-range 3–10, po) it was >10 mg/kg; in the data set with OF1 mice [3], >30 mg/kg; with CD-1 mice (dose-range 1–10, po, CD-1 mice) it was 3 mg/kg. Also, the “inhibition of [3H]LY341495 binding by compound alone” value on rat mGluR2 is given as “not inhibited”. Also, the “lowering of the Ki of glutamate” value at rat mGluR2 turned out to be 3.5 fold. Besides, the “maximal binding, glutamate in the presence of SAR218645” value at rat mGluR2 (Fig. 5B) came to 90%. In addition, the “effect on locomotor activity” value is on record as “no effects” in the data set on NMDA Nr1neo−/− mice (NMDA Nr1neo−/− mice, SAR218645 po) and “no effects” with DAT−/− mice (DAT−/− mice, SAR218645 po). Besides, on human mGluR6 (10 μM SAR218645), the “effect on glutamate-induced activation” value was “no effect”. In addition, the “calcium response to compound alone” value on human mGluR6 (SAR218645 alone) and on human mGluR3 (SAR218645 alone) was “did not elicit a calcium response” in each case. The “effect on glutamate-induced increases in intracellular calcium” value at human mGluR3 (10 μM SAR218645) is “no effect”. Moreover, the “inhibition of radioligand binding, panel” value in data set [2] is given as “no interaction”. In the data set with CD-1 mice (3 and 10 mg/kg po, 60 min before LY404039 infusion, P < 0.01), the “effect on LY404039-induced turning behavior” value was “potentiated significantly”.

(Values after article PMC5062470, “The mGluR2 positive allosteric modulator, SAR218645, improves memory and attention deficits in translational models of cognitive symptoms associated with schizophrenia” (Scientific Reports, 2016).)
